Assay results from ChEMBL document CHEMBL3351617, “Concise syntheses of 7-anilino-indoline-N-benzenesulfonamides as antimitotic and vascular disrupting agents” (Bioorg Med Chem, 2014).
Activity calls are given as the source filed them. No cut-off for these calls is given here.

Legend:
[1] = system: KB; assay: Antiproliferative activity against human KB cells; format: functional, cell-based
[2] = system: HT-29; assay: Antiproliferative activity against human HT-29 cells; format: functional, cell-based
[3] = Antiproliferative activity against human MKN45 cells; format: functional, cell-based; details: MKN-45
[4] = Retention time of the compound by HPLC; format: physicochemical
[5] = Antiproliferative activity against human KB-7d cells; format: functional, cell-based; details: KB7D
[6] = Antiproliferative activity against human KB-VIN10 cells; format: functional, cell-based
[7] = Antiproliferative activity against human KB-S15 cells; format: functional, cell-based
[8] = biological target: Tubulin; assay: Inhibition of tubulin (unknown origin) polymerization by spectrophotometry; format: protein-complex assay, Homo sapiens
[9] = biological target: T1, Tubulin (Homo sapiens) (UniProt P68371+Q9H4B7+P0DPH7+P68366+Q13509+Q71U36+P04350+Q3ZCM7+P07437+P68363+Q9BQE3+Q6PEY2+Q13885+Q9BVA1+Q9BUF5); assay: Displacement of [3H]colchicine from long-chain biotin-labeled tubulin (unknown origin) at 1 uM after 2 hrs by competition-binding scintillation proximity assay; format: protein-complex assay
[10] = biological target: T1, Tubulin (Homo sapiens); assay: Competitive inhibition of [3H]colchicine binding to long-chain biotin-labeled tubulin (unknown origin) after 2 hrs by double-reciprocal plot analysis; format: protein-complex assay
[11] = biological target: T1, Tubulin (Homo sapiens); assay: Inhibition of MAP-rich tubulin (unknown origin) polymerization measured every 30 seconds for 30 mins by spectrophotometry; format: protein-complex assay
[12] = biological target: T1, Tubulin (Homo sapiens); assay: Inhibition of MAP-rich tubulin (unknown origin) polymerization at 10 uM measured every 30 seconds for 30 mins by spectrophotometry; format: protein-complex assay
[13] = system: KB; assay: Cell cycle arrest in human KB cells assessed as accumulation at G2/M phase after 24 hrs using propidium iodide staining by flow cytometry; format: functional, cell-based
[14] = system: KB; assay: Cell cycle arrest in human KB cells assessed as reduction of cells at G1 phase at 25 to 400 nM after 24 hrs using propidium iodide staining by flow cytometry; format: functional, cell-based
[15] = system: KB; assay: Cell cycle arrest in human KB cells assessed as reduction of cells at S phase at 25 to 400 nM after 24 hrs using propidium iodide staining by flow cytometry; format: functional, cell-based
[16] = system: KB; assay: Cell cycle arrest in human KB cells assessed as accumulation of cells at sub-G1 phase at 100 nM after 24 hrs using propidium iodide staining by flow cytometry; format: functional, cell-based
[17] = system: HUVEC; assay: Disruption of vasculature in HUVECs assessed as inhibition of VEGF-induced capillary tube formation by microscopy; format: functional, cell-based; details: Homo sapiens
[18] = system: HUVEC; assay: Disruption of vasculature in HUVECs assessed as inhibition of VEGF-induced capillary tube formation at 100 nM by microscopy; format: functional, cell-based; details: Homo sapiens
[19] = system: HUVEC; assay: Cytotoxicity against HUVECs assessed as reduction in cell viability at 100 nM; format: cell-based; details: human, 0.1 µM
[20] = biological target: T1, Tubulin (Homo sapiens); assay: Displacement of [3H]colchicine from long-chain biotin-labeled tubulin (unknown origin) at 5 uM after 2 hrs by competition-binding scintillation proximity assay; format: protein-complex assay
[21] = system: HT-29; assay: Ratio of ABT751 IC50 to compound IC50 for human HT-29 cells; format: functional
[22] = system: MKN-45; assay: Ratio of ABT751 IC50 to compound IC50 for human MKN45 cells; format: functional
[23] = system: KB; assay: Ratio of ABT751 IC50 to compound IC50 for human KB cells; format: functional

Row | IC50 [1] [nM] | IC50 [2] [nM] | Retention_time [4] [min] | SMILES | IC50 [3] [nM] | IC50 [5] [nM] | other results
1 | 412 | 968 | 45.49 | COc1ccc(S(=O)(=O)N2CCc3cccc(Nc4ccc(F)c(F)c4)c32)cc1 | 726 |  | 
2 |  |  |  | CC[C@]1(O)C[C@H]2CN(CCc3c([nH]c4ccccc34)[C@@](C(=O)OC)(c3cc4c(cc3OC)N(C=O)[C@H]3[C@@](O)(C(=O)OC)[C@H](OC(C)=O)[C@]5(CC)C=CCN6CC[C@]43[C@@H]65)C2)C1 [VINCRISTINE] |  | 1.2 | 
3 |  |  |  | CC(=O)O[C@H]1C(=O)[C@@]2(C)[C@H]([C@H](OC(=O)c3ccccc3)[C@]3(O)C[C@H](OC(=O)[C@H](O)[C@@H](NC(=O)c4ccccc4)c4ccccc4)C(C)=C1C3(C)C)[C@]1(OC(C)=O)CO[C@@H]1C[C@@H]2O [PACLITAXEL] |  | 7.9 | 
4 | 557 | 588 | 44.71 | COc1ccc(S(=O)(=O)N2CCc3cccc(Nc4ccc(F)cc4)c32)cc1 | 563 |  | 
5 | 342 | 343 | 44.81 | COc1ccc(S(=O)(=O)N2CCc3cccc(Nc4ccccc4)c32)cc1 | 187 |  | 
6 | 239 | 511 | 32 | COc1ccc(S(=O)(=O)N2CCc3cccc(Nc4ccc(O)cc4)c32)cc1 | 493 |  | 
7 |  |  |  | COc1cc([C@@H]2c3cc4c(cc3[C@@H](O[C@@H]3O[C@@H]5CO[C@@H](C)O[C@H]5[C@H](O)[C@H]3O)[C@H]3COC(=O)[C@H]23)OCO4)cc(OC)c1O [ETOPOSIDE] |  | 54000 | IC50 [6]: 23000 nM; IC50 [7]: 3500 nM
8 | 49.7 | 149 | 40.79 | COc1ccc(S(=O)(=O)N2CCc3cccc(Nc4ccc(C#N)cc4)c32)cc1 | 92 | 71.1 | IC50 [6]: 71.9 nM; IC50 [7]: 77.3 nM; IC50 [8]: 3200 nM; inhibition [9]: 83.6%; inhibition [10]: Active; inhibition [11]: Dose-dependent effect; inhibition [12]: Active; Activity [13]: Dose-dependent effect; Activity [14]: Active; Activity [15]: Active; Activity [16]: Active; Activity [17]: Dose-dependent effect; Activity [18]: Active; Activity [19]: Non-toxic; inhibition [20]: 86.4%
9 | 101 | 191 | 42.28 | COc1ccc(S(=O)(=O)N2CCc3cccc(Nc4ccc([N+](=O)[O-])cc4)c32)cc1 | 107 | 115 | IC50 [6]: 109 nM; IC50 [7]: 95.4 nM; IC50 [8]: 3700 nM; inhibition [9]: 44%; Ratio IC50 [21]: 1.5; Ratio IC50 [22]: 1.5; inhibition [20]: 69.3%
10 | 93.5 | 678 | 42.74 | COC(=O)c1ccc(Nc2cccc3c2N(S(=O)(=O)c2ccc(OC)cc2)CC3)cc1 | 487 |  | IC50 [8]: 4700 nM; inhibition [9]: 41.4%; Ratio IC50 [23]: 3; inhibition [20]: 66.9%
11 | 1200 | 803 | 43.47 | COc1ccc(Nc2cccc3c2N(S(=O)(=O)c2ccc(OC)cc2)CC3)cc1 | 487 |  | 
12 | 1100 | 658 | 48.11 | COc1ccc(S(=O)(=O)N2CCc3cccc(Nc4ccc(Cl)cc4)c32)cc1 | 463 |  | 
13 | 846 | 2380 | 33.94 | COc1ccc(S(=O)(=O)N2CCc3cccc(Nc4ccc(C(=O)O)cc4)c32)cc1 | 1390 |  | 
